Data reported in ChEMBL document CHEMBL3526048, “In vitro metabolism of rivoglitazone, a novel peroxisome proliferator-activated receptor γ agonist, in rat, monkey, and human liver microsomes and freshly isolated hepatocytes” (Drug Metab Dispos, 2011).

Experiments:
[1] = molecular target: T1, UDP-glucuronosyltransferase 1A4 (Homo sapiens, UniProt P22310); experiment: Activity of human UGT1A4 expressed in microsomes isolated from baculovirus infected insect cell assessed as enzyme-mediated 2-mercapto-3-(4-((6-methoxy-1-methyl-1H-benzo[d]imidazol-2-yl)methoxy)phenyl)propanoic acid formation at 20 uM after 4 hrs by radio-HPLC/LC-MS/MS analysis in presence of UDPGA; assay type: ADME
T1 sequence (P22310 whole entry): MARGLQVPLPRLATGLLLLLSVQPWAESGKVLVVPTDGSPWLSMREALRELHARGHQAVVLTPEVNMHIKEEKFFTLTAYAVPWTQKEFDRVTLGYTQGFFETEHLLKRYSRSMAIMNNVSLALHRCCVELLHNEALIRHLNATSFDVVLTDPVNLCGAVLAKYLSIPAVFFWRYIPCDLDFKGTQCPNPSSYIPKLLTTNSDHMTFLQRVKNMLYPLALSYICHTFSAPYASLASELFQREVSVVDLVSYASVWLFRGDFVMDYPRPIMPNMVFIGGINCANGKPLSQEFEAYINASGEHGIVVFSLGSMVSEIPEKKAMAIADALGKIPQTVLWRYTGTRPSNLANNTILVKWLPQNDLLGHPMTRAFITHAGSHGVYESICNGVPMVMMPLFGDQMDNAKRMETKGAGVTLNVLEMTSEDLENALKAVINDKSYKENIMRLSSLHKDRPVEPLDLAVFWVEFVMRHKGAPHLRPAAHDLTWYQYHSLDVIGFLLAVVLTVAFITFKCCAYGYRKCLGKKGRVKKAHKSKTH

[2] = molecular target: T2, UDP-glucuronosyltransferase 1A3 (Homo sapiens, UniProt P35503); experiment: Activity of human UGT1A3 expressed in microsomes isolated from baculovirus infected insect cell assessed as enzyme-mediated 5-(4-((6-hydroxy-1-methyl-1H-benzo[d]imidazol-2-yl)methoxy)benzyl)thiazolidine-2,4-dione formation at 20 uM after 4 hrs by radio-HPLC/LC-MS/MS analysis in presence of NADPH-generating system/SAM; assay type: ADME
T2 sequence (P35503 whole entry): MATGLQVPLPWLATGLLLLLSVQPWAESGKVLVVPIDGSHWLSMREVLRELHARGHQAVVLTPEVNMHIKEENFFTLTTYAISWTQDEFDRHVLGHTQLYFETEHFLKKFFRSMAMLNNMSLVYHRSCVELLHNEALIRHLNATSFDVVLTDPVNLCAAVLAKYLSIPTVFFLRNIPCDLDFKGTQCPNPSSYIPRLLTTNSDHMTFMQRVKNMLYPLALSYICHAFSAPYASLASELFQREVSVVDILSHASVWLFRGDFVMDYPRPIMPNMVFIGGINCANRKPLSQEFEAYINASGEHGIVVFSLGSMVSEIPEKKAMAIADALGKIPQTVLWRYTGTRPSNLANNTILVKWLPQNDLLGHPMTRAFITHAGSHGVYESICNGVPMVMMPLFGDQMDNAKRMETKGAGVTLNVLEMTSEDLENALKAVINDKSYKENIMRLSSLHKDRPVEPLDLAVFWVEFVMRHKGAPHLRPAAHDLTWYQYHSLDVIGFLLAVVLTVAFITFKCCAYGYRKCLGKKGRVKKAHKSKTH

[3] = molecular target: T3, UDP-glucuronosyltransferase 2B7 (Homo sapiens, UniProt P16662); experiment: Activity of human UGT2B7 expressed in microsomes isolated from baculovirus infected insect cell assessed as enzyme-mediated 3-(4-((6-methoxy-1-methyl-1H-benzo[d]imidazol-2-yl)methoxy)phenyl)-2-(methylthio)propanamide formation at 20 uM after 4 hrs by radio-HPLC/LC-MS/MS analysis in presence of NADPH-generating system/SAM in presence of UDPGA and UDPGA/SAM; assay type: ADME
T3 sequence (P16662 whole entry): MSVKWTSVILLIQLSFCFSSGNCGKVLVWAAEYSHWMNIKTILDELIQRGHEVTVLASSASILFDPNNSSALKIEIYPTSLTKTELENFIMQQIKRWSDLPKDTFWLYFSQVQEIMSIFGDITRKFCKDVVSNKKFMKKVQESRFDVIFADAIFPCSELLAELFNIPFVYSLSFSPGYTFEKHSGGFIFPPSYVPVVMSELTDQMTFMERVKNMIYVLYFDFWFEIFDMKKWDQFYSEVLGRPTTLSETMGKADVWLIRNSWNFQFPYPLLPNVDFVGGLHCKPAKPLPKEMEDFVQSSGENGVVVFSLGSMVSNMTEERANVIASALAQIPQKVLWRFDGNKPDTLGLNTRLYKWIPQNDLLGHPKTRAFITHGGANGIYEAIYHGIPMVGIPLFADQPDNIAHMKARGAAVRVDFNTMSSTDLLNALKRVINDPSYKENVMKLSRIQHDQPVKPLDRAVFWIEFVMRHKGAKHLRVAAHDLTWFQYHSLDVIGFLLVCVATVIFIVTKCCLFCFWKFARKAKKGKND

[4] = Drug metabolism in human hepatocytes assessed as formation of 2-mercapto-3-(4-((6-methoxy-1-methyl-1H-benzo[d]imidazol-2-yl)methoxy)phenyl)propanoic acid at 30 uM after 3 hrs by radio-HPLC/LC-MS/MS analysis in presence of UDPGA, UDPGA/SAM and NADPH-generating system; assay type: ADME, cell-based, Hepatocyte
[5] = Drug metabolism in cynomolgus monkey liver microsomes assessed as formation of 2-mercapto-3-(4-((6-methoxy-1-methyl-1H-benzo[d]imidazol-2-yl)methoxy)phenyl)propanoic acid at 20 uM after 2 to 4 hrs by radio-HPLC/LC-MS/MS analysis in presence of UDPGA, UDPGA/SAM and NADPH-generating system; assay type: ADME, Macaca fascicularis
[6] = molecular target: Cytochrome P450 2D6 (Homo sapiens, UniProt P10635); experiment: Activity of human CYP2D6 expressed in microsomes isolated from baculovirus infected insect cell assessed as enzyme-mediated (2S,3S,4S,5R,6R)-3,4,5-trihydroxy-6-(5-(4-((6-methoxy-1-methyl-1H-benzo[d]imidazol-2-yl)methoxy)benzyl)-2,4-dioxothiazolidin-3-yl)tetrahydro-2H-pyran-2-carboxylic acid formation at 20 uM after 2 hrs by radio-HPLC/LC-MS/MS analysis in presence of UDPGA and UDPGA/SAM; assay type: ADME
Cytochrome P450 2D6, sequence (P10635 whole entry): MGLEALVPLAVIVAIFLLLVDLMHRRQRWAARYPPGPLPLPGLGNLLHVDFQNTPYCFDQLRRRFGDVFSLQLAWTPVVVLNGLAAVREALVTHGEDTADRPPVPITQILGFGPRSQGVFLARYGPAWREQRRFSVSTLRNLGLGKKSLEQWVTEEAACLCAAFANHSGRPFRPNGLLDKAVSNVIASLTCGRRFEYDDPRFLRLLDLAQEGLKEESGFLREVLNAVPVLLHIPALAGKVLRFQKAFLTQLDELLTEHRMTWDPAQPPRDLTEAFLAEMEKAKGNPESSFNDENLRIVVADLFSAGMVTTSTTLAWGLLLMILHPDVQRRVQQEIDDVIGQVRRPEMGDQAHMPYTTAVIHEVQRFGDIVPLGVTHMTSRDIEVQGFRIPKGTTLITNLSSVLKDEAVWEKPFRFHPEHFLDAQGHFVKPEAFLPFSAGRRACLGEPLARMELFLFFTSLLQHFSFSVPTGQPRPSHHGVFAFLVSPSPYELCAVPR

## COc1ccc2nc(COc3ccc(C[14CH]4SC(=O)NC4=O)cc3)n(C)c2c1.Cl (racemic)
[1]
  Drug metabolism: metabolite_not_detected
[2]
  Drug metabolism: metabolite_not_detected
[3]
  Drug metabolism: metabolite_not_detected
[4]
  Drug metabolism: metabolite_not_detected
[5]
  Drug metabolism: metabolite_detected
[6]
  Drug metabolism: metabolite_not_detected
